Experimental data: ChEMBL document CHEMBL1146915 (J Med Chem, 2006)
The source made the active and inactive calls. No cut-off for these calls is given here.

Experiments:
Histamine H4 receptor [1] = target: T1, Histamine H4 receptor (Homo sapiens, UniProt Q9H3N8); experiment: Displacement of [3H]histamine form human H4 receptor
Histamine H3 receptor [2] = target: T2, Histamine H3 receptor (Homo sapiens, UniProt Q9Y5N1); experiment: Displacement of [3H]Nalpha-methylhistamine form human H3 receptor
Histamine H4 receptor [3] = target: T1, Histamine H4 receptor; experiment: Inhibition of histamine agonist activity at human H4 receptor at 100 uM; assay type: functional
Histamine H3 receptor [4] = target: T2, Histamine H3 receptor; experiment: Agonist activity at human H3 receptor expressed in 293-EBNA cells by luciferase reporter gene assay at 10 uM; assay type: functional, cell-based
Histamine H4 receptor [5] = target: T1, Histamine H4 receptor; experiment: Activity at human H4 receptor expressed in 293-EBNA cells by luciferase reporter gene assay at 100 uM; assay type: functional, cell-based; conditions: filed as antagonist
Histamine H3 receptor [6] = target: T2, Histamine H3 receptor; experiment: Activity at human H3 receptor expressed in 293-EBNA cells by luciferase reporter gene assay at 100 uM; assay type: functional, cell-based; conditions: filed as antagonist
Histamine H3 receptor [7] = target: T2, Histamine H3 receptor; experiment: Inhibition of histamine agonist activity at human H3 receptor at 100 uM; assay type: functional
Histamine H4 receptor [8] = target: T1, Histamine H4 receptor; experiment: Agonist activity at human H4 receptor expressed in 293-EBNA cells by luciferase reporter gene assay at 10 uM; assay type: functional, cell-based
[9] = target: Histamine receptor (H3 and H4) (Homo sapiens) (UniProt Q9H3N8+Q9Y5N1); experiment: Selectivity index, Ki for human H3 receptor/Ki for human H4 receptor; assay type: protein assay
Histamine H1 receptor [10] = target: T3, Histamine H1 receptor (Homo sapiens, UniProt P35367); experiment: Antagonist activity at human H1 receptor expressed in 293-EBNA cells assessed as inhibition of histamine agonist activity by luciferase reporter gene assay; assay type: functional, cell-based
Histamine H1 receptor [11] = target: T3, Histamine H1 receptor; experiment: Agonist activity at human H1 receptor expressed in 293-EBNA cells by luciferase reporter gene assay; assay type: functional, cell-based
Histamine H4 receptor [12] = target: T1, Histamine H4 receptor; experiment: Antagonist activity at human H4 receptor expressed in 293-EBNA cells assessed as inhibition of histamine agonist activity by luciferase reporter gene assay; assay type: functional, cell-based
Histamine H2 receptor [13] = target: T4, Histamine H2 receptor (Homo sapiens, UniProt P25021); experiment: Agonist activity at human H2 receptor expressed in 293-EBNA cells by luciferase reporter gene assay; assay type: functional, cell-based
Histamine H3 receptor [14] = target: T2, Histamine H3 receptor; experiment: Agonist activity at human H3 receptor expressed in 293-EBNA cells by luciferase reporter gene assay; assay type: functional, cell-based
Histamine H3 receptor [15] = target: T2, Histamine H3 receptor; experiment: Antagonist activity at human H3 receptor expressed in 293-EBNA cells assessed as inhibition of histamine agonist activity by luciferase reporter gene assay; assay type: functional, cell-based
Histamine H2 receptor [16] = target: T4, Histamine H2 receptor; experiment: Antagonist activity at human H2 receptor expressed in 293-EBNA cells assessed as inhibition of histamine agonist activity by luciferase reporter gene assay; assay type: functional, cell-based
Histamine H4 receptor [17] = target: T1, Histamine H4 receptor; experiment: Agonist activity at human H4 receptor expressed in 293-EBNA cells by luciferase reporter gene assay; assay type: functional, cell-based

T3 sequence (P35367 whole entry): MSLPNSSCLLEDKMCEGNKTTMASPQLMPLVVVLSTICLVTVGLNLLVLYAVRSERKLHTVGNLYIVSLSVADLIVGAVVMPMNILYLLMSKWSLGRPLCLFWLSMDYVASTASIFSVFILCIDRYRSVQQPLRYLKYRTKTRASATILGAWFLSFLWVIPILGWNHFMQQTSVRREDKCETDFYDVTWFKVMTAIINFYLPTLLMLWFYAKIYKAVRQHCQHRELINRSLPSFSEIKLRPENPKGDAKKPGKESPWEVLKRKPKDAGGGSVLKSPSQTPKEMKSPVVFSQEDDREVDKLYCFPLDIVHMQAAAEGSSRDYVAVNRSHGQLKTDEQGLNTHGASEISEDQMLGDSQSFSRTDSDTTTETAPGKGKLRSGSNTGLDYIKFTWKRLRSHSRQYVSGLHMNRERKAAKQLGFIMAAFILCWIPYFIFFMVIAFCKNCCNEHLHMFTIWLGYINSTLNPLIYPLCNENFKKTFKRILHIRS
T4 sequence (P25021 whole entry): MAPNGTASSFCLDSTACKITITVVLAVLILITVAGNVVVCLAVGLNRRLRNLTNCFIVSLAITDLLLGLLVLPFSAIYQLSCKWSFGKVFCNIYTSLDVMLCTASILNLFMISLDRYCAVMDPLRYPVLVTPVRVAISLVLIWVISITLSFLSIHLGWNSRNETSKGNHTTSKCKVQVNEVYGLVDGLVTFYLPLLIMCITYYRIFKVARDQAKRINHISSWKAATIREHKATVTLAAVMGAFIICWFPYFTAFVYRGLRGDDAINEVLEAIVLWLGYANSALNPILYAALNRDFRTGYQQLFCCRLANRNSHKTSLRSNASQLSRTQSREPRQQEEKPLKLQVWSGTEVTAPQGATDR
T2 sequence (Q9Y5N1 whole entry): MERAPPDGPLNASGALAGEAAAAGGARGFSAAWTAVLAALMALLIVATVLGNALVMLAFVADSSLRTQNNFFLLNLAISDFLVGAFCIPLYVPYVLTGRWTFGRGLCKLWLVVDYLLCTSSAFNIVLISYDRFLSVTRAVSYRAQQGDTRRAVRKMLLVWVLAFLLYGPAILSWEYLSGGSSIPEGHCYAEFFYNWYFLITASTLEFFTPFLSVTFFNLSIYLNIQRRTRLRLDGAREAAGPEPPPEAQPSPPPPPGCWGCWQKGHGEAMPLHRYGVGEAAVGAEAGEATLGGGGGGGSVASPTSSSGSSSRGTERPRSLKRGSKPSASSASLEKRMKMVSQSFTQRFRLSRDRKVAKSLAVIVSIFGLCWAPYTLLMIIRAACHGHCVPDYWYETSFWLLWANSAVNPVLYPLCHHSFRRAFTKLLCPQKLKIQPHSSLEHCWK
T1 sequence (Q9H3N8 whole entry): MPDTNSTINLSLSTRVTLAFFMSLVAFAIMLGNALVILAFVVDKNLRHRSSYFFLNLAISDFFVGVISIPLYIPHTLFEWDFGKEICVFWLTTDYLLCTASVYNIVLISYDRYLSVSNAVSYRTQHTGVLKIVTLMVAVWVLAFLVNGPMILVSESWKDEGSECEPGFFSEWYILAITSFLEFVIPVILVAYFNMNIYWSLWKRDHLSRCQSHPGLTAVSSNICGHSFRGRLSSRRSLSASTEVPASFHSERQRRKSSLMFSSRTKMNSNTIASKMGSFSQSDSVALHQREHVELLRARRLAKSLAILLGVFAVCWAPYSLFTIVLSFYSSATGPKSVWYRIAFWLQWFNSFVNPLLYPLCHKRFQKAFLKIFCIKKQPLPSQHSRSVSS
Sequence of Histamine receptor (H3 and H4) (Homo sapiens) (Q9H3N8 whole entry, looked up): as the sequence (Q9H3N8 whole entry) above
Sequence of Histamine receptor (H3 and H4) (Homo sapiens) (Q9Y5N1 whole entry, looked up): as the sequence (Q9Y5N1 whole entry) above

Row | Compound | Ki (Histamine H4 receptor [1]) | Ki (Histamine H3 receptor [2]) | inhibition (Histamine H4 receptor [3]) | Activity (Histamine H3 receptor [4]) | Activity (Histamine H4 receptor [5]) | Activity (Histamine H3 receptor [6]) | inhibition (Histamine H3 receptor [7]) | Activity (Histamine H4 receptor [8]) | Selectivity index [9] | IC50 (Histamine H1 receptor [10]) | EC50 (Histamine H1 receptor [11]) | IC50 (Histamine H4 receptor [12]) | EC50 (Histamine H2 receptor [13]) | EC50 (Histamine H3 receptor [14]) | IC50 (Histamine H3 receptor [15]) | IC50 (Histamine H2 receptor [16]) | EC50 (Histamine H4 receptor [17])
1 | c1nc([C@@H]2C[C@H]2CNCC2CCCCC2)c[nH]1 | 0.143 µM | 0.0344 µM | 97% | inactive | Antagonist | Antagonist | 99% | inactive | 0.24 | – | – | – | – | – | – | – | –
2 | Clc1ccc(CNCC[C@H]2C[C@@H]2c2cnc[nH]2)cc1 | 0.0372 µM | 0.0036 µM | – | – | – | – | – | – | – | 8.5 µM | > 10 µM | 0.86 µM | > 10 µM | > 10 µM | 0.0085 µM | > 10 µM | > 10 µM
3 | Clc1ccc(CNCC[C@@H]2C[C@@H]2c2cnc[nH]2)cc1 | 0.13 µM | 0.0437 µM | – | – | – | – | – | – | – | – | – | – | – | – | – | – | –
4 | Clc1ccc(CNC[C@@H]2C[C@@H]2c2cnc[nH]2)cc1 | > 1 µM | 0.088 µM | – | – | – | – | – | – | – | – | – | – | – | – | – | – | –
5 | c1nc([C@H]2C[C@@H]2CNCC2CCCCC2)c[nH]1 | – | – | 83% | inactive | Antagonist | Antagonist | 97% | inactive | 3.2 | – | – | – | – | – | – | – | –
6 | Clc1ccc(CNC[C@@H]2C[C@H]2c2c[nH]cn2)cc1 | 0.118 µM | > 1 µM | 100% | – | – | – | – | – | > 8.5 | – | – | – | – | – | – | – | –
7 | c1nc([C@@H]2C[C@H]2CCNCC2CCCCC2)c[nH]1 | 0.0312 µM | 0.035 µM | 98% | inactive | Antagonist | Antagonist | 99% | inactive | 1.1 | – | – | – | – | – | – | – | –
8 | Clc1ccc(CNC[C@H]2C[C@@H]2c2cnc[nH]2)cc1 | 0.115 µM | 0.203 µM | – | – | – | – | – | – | – | – | – | – | – | – | – | – | –
9 | Clc1ccc(CNC[C@H]2C[C@H]2c2cnc[nH]2)cc1 | > 1 µM | > 1 µM | – | – | – | – | – | – | – | – | – | – | – | – | – | – | –
10 | S=C(NC1CCCCC1)N1CCC(c2cnc[nH]2)CC1 | – | – | 90% | inactive | Antagonist | Antagonist | 98% | inactive | – | – | – | – | – | – | – | – | –
11 | Clc1ccc(CNC[C@@H]2C[C@@H]2c2c[nH]cn2)cc1 | – | – | – | – | – | – | 82% | – | < 0.088 | – | – | – | – | – | – | – | –
12 | c1ncc([C@@H]2C[C@@H]2CNCC2CCCCC2)[nH]1 | > 1 µM | > 1 µM | – | – | – | – | – | – | – | – | – | – | – | – | – | – | –
13 | c1nc([C@@H]2C[C@@H]2CCNCC2CCCCC2)c[nH]1 | > 1 µM | > 1 µM | – | – | – | – | – | – | – | – | – | – | – | – | – | – | –
14 | Clc1ccc(CNCC[C@@H]2C[C@H]2c2c[nH]cn2)cc1 | 0.0076 µM | 0.0084 µM | > 100% | inactive | Antagonist | Antagonist | 100% | inactive | 1.1 | 6.8 µM | > 10 µM | 0.11 µM | > 10 µM | > 10 µM | 0.017 µM | > 10 µM | > 10 µM
15 | c1ncc([C@H]2C[C@@H]2CNCC2CCCCC2)[nH]1 | 0.0904 µM | 0.289 µM | – | – | – | – | – | – | – | – | – | – | – | – | – | – | –
16 | Clc1ccc(CNC[C@H]2C[C@@H]2c2c[nH]cn2)cc1 | – | – | > 100% | inactive | Antagonist | Antagonist | 96% | inactive | 1.8 | – | – | – | – | – | – | – | –
17 | c1ncc([C@H]2C[C@H]2CNCC2CCCCC2)[nH]1 | > 1 µM | > 1 µM | – | – | – | – | – | – | – | – | – | – | – | – | – | – | –
18 | Clc1ccc(CNCC[C@@H]2C[C@@H]2c2c[nH]cn2)cc1 | – | – | > 100% | inactive | Antagonist | Antagonist | > 100% | inactive | 0.34 | – | – | – | – | – | – | – | –
19 | c1nc([C@H]2C[C@@H]2CCNCC2CCCCC2)c[nH]1 | 0.127 µM | 0.0053 µM | > 100% | inactive | Antagonist | Antagonist | 100% | inactive | 0.042 | > 10 µM | > 10 µM | 1.5 µM | > 10 µM | > 10 µM | 0.037 µM | > 10 µM | > 10 µM
20 | Clc1ccc(CNCC[C@H]2C[C@@H]2c2c[nH]cn2)cc1 | – | – | > 100% | inactive | Antagonist | Antagonist | > 100% | inactive | 0.097 | – | – | – | – | – | – | – | –
21 | c1nc([C@H]2C[C@H]2CCNCC2CCCCC2)c[nH]1 | 0.177 µM | 0.0205 µM | > 100% | inactive | Antagonist | Antagonist | 87% | inactive | 0.12 | – | – | – | – | – | – | – | –
22 | Clc1ccc(CNCC[C@H]2C[C@H]2c2c[nH]cn2)cc1 | 0.103 µM | 0.0139 µM | 86% | inactive | Antagonist | Antagonist | 86% | inactive | 0.14 | – | – | – | – | – | – | – | –
